Experiments:
VEGF-stimulated HUVEC = VEGF-stimulated HUVEC proliferation assay (BrdU); type: cell-based; details: Homo sapiens, VEGF 20 ng per mL, BrdU labeling, 24 hour exposure, read-out: IC50 (μM) of VEGF and FGF-Stimulated HUVEC Proliferation Assays HUVEC/VEFG
Method: (§1) The antiproliferative activity of test compounds of this invention in cell-based assays was evaluated by BrdU assay using the BrdU kit (Roche Biochemicals 1-647-229). Human umbilical vein endothelial cells (HUVEC, Clonetics CC-2519) were cultured in EGM-2 (Clonetics CC-3162) medium and seeded at 10000 cells per well in a volume of 200 μL of EGM-2 (Clonetics CC-3162) media in a 96-well flat bottom plates (Costar 3595) overnight. After 24 hours of growth at 37° C. with 5% CO2, the incubation media was removed slowly by aspiration and the content of each well was washed with 300 μL pre-warmed EBM-2 (Clonetics CC-3156) containing 50 μg per mL of gentamycin and 50 ng per mL of amphotercin-B (Clonetics CC-4083). Subsequently, the remaining media was again aspirated and replaced with 160 μL per well of serum starvation media (EBM-2 supplemented with 1% heat inactivated FBS (Clonetics CC-4102), 50 μg per mL gentamycin and 50 ng per mL of amphotercin-B (Clonetics CC-4083), 10 units per mL of Wyeth-Ayerst heparin (NDC0641-0391-25), and 2 mM L-glutamine (GIBCO 25030-081). After serum starving the cells for 24 hours, 20 μL of test compound at 10× test concentration in serum starvation medium with 2.5% DMSO was added to the appropriate wells. The control wells contained 20 μL of serum starvation medium with 2.5% DMSO. Plates were returned to the incubator for 2 hours. After pre-incubating the cells with the test compounds for 2 hours, 20 μL of growth factors at 10× assay concentration diluted in serum starvation media, FGF at 50 ng per mL, or VEGF (R&D systems 293-VE) at 200 ng per mL were added. The final concentration of FGF in the assay was 5 ng per mL and the final concentration of VEGF in the assays was 20 ng per mL. The growth factor free control wells had 20 μL per well of serum starvation media with the same amount of BSA as the wells with growth factors. The plates were returned to the incubator for an additional 22 hours.
(§2) After 24 hour exposure to the test compounds, the cells were labeled with BrdU (Roche Biochemicals 1-647-229), by adding 20 μL per well of BrdU labeling reagent that has been diluted (1:100) in serum starvation medium. The plates were then returned to the incubator for 4 hours. The labeling medium was removed by draining the medium onto paper towels. The cells were fixed and DNA denatured by adding 200 μL of fixation/denaturation solution to each well and incubating at room temperature for 45 minutes. The fixation/denaturation solution was drained onto paper towels and to each well was added 100 μL of anti-BrdU-POD and the wells were incubated for 2 hours at room temperature. The antibody solution was removed and the wells were each washed 3–4 times with 300 μl PBS. 100 μL of the TMB substrate solution was added to each well and the wells were incubated at room temperature for 5–8 minutes. The reaction was then stopped by adding 100 μL per well of 1 M phosphoric acid. The plates were read at 450 nm with reference wavelength of 650 nm. The percent inhibition for each test compound was calculated by subtracting the absorbency of the blank (no cells) wells from all wells, then subtracting the division of the average absorbency of each test duplicate by the average of the controls from 1. The final product was then multiplied by 100 (% of inhibition=(1−average absorbency of test duplicate/average of control)100). The IC50 value is the concentration of test compound that inhibits by 50% BrdU labeling, and is a measure of inhibition of cell proliferation. The IC50 is determined from the linear regression of a plot of the logarithm of the concentration versus percent inhibition.

FGF-stimulated HUVEC = FGF-stimulated HUVEC proliferation assay (BrdU); type: cell-based; details: Homo sapiens, FGF 5 ng per mL, BrdU labeling, 24 hour exposure, read-out: IC50 (μM) of VEGF and FGF-Stimulated HUVEC Proliferation Assays HUVEC/bFGFR
Method: as §1, §2

FGFR = biological target: T1, FGFR; assay: FGFR kinase HTRF assay; type: biochemical; details: 10 μM ATP, read-out: IC50 (μM) - Enzyme Inhibition Assays FGFR
T1 construct: fused on or other part: GST tag
Method: To determine inhibition of KDR, FGFR, EGFR, and PDGFR activity, kinase assays were conducted using an HTRF (Homogeneous Time Resolved Fluorescence) assay. This assay is described in A. J. Kolb et. al., Drug Discovery Today, 1998, 3(7), p 333.
Kinase activity assays were performed in 96-well polypropylene plates (Falcon) with a total volume of 90 μL in each well. Each well contained 1 μM KDR substrate (Biotin-EEEEYFELVAKKKK), 1 nM activated KDR, and a test compound with one of 8 assay concentrations ranging from 100 μM to […] (1:5 serial dilution). The kinase activity assay was done in the presence of 100 mM HEPES, pH 7.4, 1 mM DTT, 0.1 mM Na2VO4, 25 mM MgCl2, 50 mM NaCl (from KDR stock solution), 1% DMSO (from compound), 0.3 mM ATP (at Km concentration) and 0.02% BSA. The reaction was incubated at 37° C. for 30 minutes. To stop the KDR reaction, 72 μL of reaction mixture was transferred into a STOP plate containing 18 μL of revelation buffer (20 mM EDTA, 50 mM HEPES, pH 7.4, 0.02% BSA, 10 nM Eu-labelled anti-pY antibody (final conc. 2 nM), and 100 nM streptavidin (final conc. 20 nM)). After mixing, 35 μL of solution was transferred into duplicate wells of a 384-well black plate (Costar), and read at 615/665 nm on a Wallac Victor 5 reader.
FGFR, EGFR, and PDGFR activity assays were carried out as described above for the KDR activity assay with the following differences. GST-tagged FGFR enzyme was activated at room temperature for 1 hour in the following activation buffer: 100 mM HEPES, pH 7.4, 50 mM NaCl, 20 mM MgCl2, and 4 mM ATP. The kinase activity assay was performed with 1 μM substrate (Biotin-EEEEYFELV), 1.5 nM activated FGFR, and test compound in the presence of 100 mM HEPES, 1 mM DTT, 0.4 mM MgCl2, 0.4 mM MnCl2, 50 mM NaCl, 1% DMSO, 10 μM ATP (Km=8.5 μM for FGFR), 0.1 mM Na2VO4, and 0.02% BSA, in a total volume of 90 μL. The rest of the assay was performed in the same manner as KDR assay.
Compound IC50 values were determined from duplicate sets of data, and calculated by using Excel and fitting data to equation Y=[(a−b)/{1+(X/c)^d]+b, where a and b are enzyme activity in the presence of no test inhibitor compound and an infinite amount of inhibitor test compound, respectively, c is the IC50 and d is the hill constant of the compound response. The IC50 value is the concentration of test compound that reduces by 50% the enzyme activity under the test conditions described.

SMILES	melting point	IC50 (VEGF-stimulated HUVEC)	IC50 (FGF-stimulated HUVEC)	IC50 (FGFR)
COc1ccc(N2C(=O)N(c3ccccc3)c3nc(Nc4ccccc4)ncc3C2C)cc1 (racemic) [Example 1g, (±)-3-(4-Methoxy-phenyl)-4-methyl-1-phenyl-7-phenylamino-3,4-dihydro-1H-pyrimido[4,5-d]pyrimidin-2-one]	222 to 234 °C	< 10 µM	< 10 µM	< 10 µM
COc1ccc(N2C(=O)N(c3ccc(OC)cc3)C(C)c3cnc(Nc4ccccc4)nc32)cc1 (racemic) [Example 4b, (±)-1,3-Bis-(4-methoxy-phenyl)-4-methyl-7-phenylamino-3,4-dihydro-1H-pyrimido[4,5-d]pyrimidin-2-one]	228 to 234 °C	< 10 µM	< 10 µM	< 10 µM
COc1ccc(N2C(=O)N(c3cccc(C#N)c3)c3nc(Nc4ccccc4)ncc3C2C)cc1 (racemic) [Example 5b, (±)-3-[3-(4-Methoxy-phenyl)-4-methyl-2-oxo-7-phenylamino-3,4-dihydro-2H-pyrimido[4,5-d]pyrimidin-1-yl]-benzonitrile]	224 to 228 °C	< 10 µM	< 10 µM	< 10 µM
COc1ccc(N2C(=O)N(c3cccc(C(N)=O)c3)c3nc(Nc4ccccc4)ncc3C2C)cc1 (racemic) [Example 6, (±)-3-[3-(4-Methoxy-phenyl)-4-methyl-2-oxo-7-phenylamino-3,4-dihydro-2H-pyrimido[4,5-d]pyrimidin-1-yl]-benzamide]	268 to 273 °C	< 10 µM	< 10 µM	< 10 µM
COc1ccc(N2C(=O)N(c3ccccc3)c3nc(Nc4ccccc4)ncc3C2C)c(F)c1 (racemic) [Example 8d, (±)-3-(2-Fluoro-4-methoxy-phenyl)-4-methyl-1-phenyl-7-phenylamino-3,4-dihydro-1H-pyrimido[4,5-d]pyrimidin-2-one]	242 to 250 °C	< 10 µM	< 10 µM	< 10 µM
COc1ccc(N2C(=O)N(c3cccc(C#N)c3)c3nc(Nc4ccccc4)ncc3C2C)c(F)c1 (racemic) [Example 9b, (±)-3-[3-(2-Fluoro-4-methoxy-phenyl)-4-methyl-2-oxo-7-phenylamino-3,4-dihydro-2H-pyrimido[4,5-d]pyrimidin-1-yl]-benzonitrile]	223 to 228 °C	< 10 µM	< 10 µM	< 10 µM
COc1ccc(N2C(=O)N(c3cccc(C(N)=O)c3)c3nc(Nc4ccccc4)ncc3C2C)c(F)c1 (racemic) [Example 10, (±)-3-[3-(2-Fluoro-4-methoxy-phenyl)-4-methyl-2-oxo-7-phenylamino-3,4-dihydro-2H-pyrimido[4,5-d]pyrimidin-1-yl]-benzamide]	282 to 286 °C	< 10 µM	< 10 µM	< 10 µM
COc1ccc(N2C(=O)N(c3ccccc3)c3nc(Nc4ccccc4)ncc3[C@@H]2C)cc1 (single isomer, unassigned) [Example 3]	223 to 236 °C	< 10 µM	< 10 µM	< 10 µM
COc1ccc(N2C(=O)N([C@H](C)CO)c3nc(Nc4ccccc4)ncc3[C@@H]2C)cc1 [Example 15b, 1-(2-Hydroxy-1-(R)-methyl-ethyl)-3-(4-methoxy-phenyl)-4-(S)-methyl-7-phenylamino-3,4-dihydro-1H-pyrimido[4,5-d]pyrimidin-2-one]	195 to 198 °C	< 10 µM	< 10 µM	< 10 µM

From patent US7112676B2, “Pyrimido compounds having antiproliferative activity” (Hoffmann-La Roche Inc., priority 2002, dated 2006)
